13 substances from US6818620B2, “Synthetic compounds and compositions with enhanced cell binding” (The Regents of the University of California, priority 1991, dated 2004) can be followed below.

For assay [1], the system named is fibroblast cells from 19-week fetal human dermis. The experiment in a line: Binding of fibroblast cells to collagen- or peptide-coated glass coverslips and dishes (Example 1). In kind it is cell-based. The settings on record: for Concentration of Cells (Relative Binding of Cells After 15 Minutes): coverslips coated with 50 μl of 1 mg/ml solution, approximately 100,000 fibroblast cells. As to the method:
All media and supplies for tissue culture were obtained from University of California San Francisco Tissue Culture Facility. Cycloheximide was purchased from Sigma Biochemicals, St. Louis, Mo. Rat tail tendon collagen was purified to homogeneity and characterized in our laboratory using published methods. Tissue culture dishes (35 mm diameter, Falcon Plastics) were coated with collagen dissolved in 0.01 N acetic acid to a concentration of 10 μg/ml. The dishes were allowed to air dry overnight under ultraviolet light to maintain sterility. Primary cultures of fibroblast cells from 19-week fetal human dermis were obtained. The cultures were maintained in Eagles minimum essential medium with Earle's salts supplemented with 10% fetal bovine serum. All cells used were in the second passage and were obtained from confluent cultures. Prior to release and dispersion with trypsin, the cells were rinsed three times with phosphate buffered saline. The cell layers were exposed for two minutes to 0.05% trypsin, 0.02% NaEDTA in phosphate buffered saline, and rinsed with serum free medium. Glass coverslips (12-15) were washed in a cleaning solution overnight then rinsed with large amounts of distilled water. The coverslips were then sterilized by drying between sheets of filter paper in an oven at high temperature. The coverslips were then placed in small culture dishes under sterile conditions. A solution of collagen in acetic acid (1 mg/ml) was prepared. Fifty microliters of solution was placed on each of four coverslips, which were then dried in air overnight. A solution of the peptide in acetic acid (1 mg/ml) was prepared. Four coverslips were treated with 50 μl of the solution and then dried as described above. Approximately 100,000 fibroblast cells were pipetted onto four control coverslips and dishes, four collagen coated coverslips and dishes, and four peptide coated coverslips and dishes. After 15 minutes, excess medium containing floating cells was removed from each dish. Fresh medium was added and the dishes were examined under a microscope to determine the extent of binding of cells to the respective coverslips. If the number of bound cells appeared to be different, an assay for DNA in the cells attached to each coverslip was performed. The cells were counted using a hemocytometer.

The subject of assay [2] is binding of cells to collagen. The experiment in a line: Inhibition of cell binding (attachment) to collagen substrates by peptides added to the medium (Example 2). Type of assay: cell-based, human. Particulars: for % Inhibition of Cell Attachment / % of Maximal Cell Attachment: collagen substrates; for effect on the binding of cells to collagen (in words): equimolar concentrations of several peptides. As to the method: All media and supplies for tissue culture were obtained from University of California San Francisco Tissue Culture Facility. Cycloheximide was purchased from Sigma Biochemicals, St. Louis, Mo. Rat tail tendon collagen was purified to homogeneity and characterized in our laboratory using published methods. Tissue culture dishes (35 mm diameter, Falcon Plastics) were coated with collagen dissolved in 0.01 N acetic acid to a concentration of 10 μg/ml. The dishes were allowed to air dry overnight under ultraviolet light to maintain sterility.
Primary cultures of fibroblast cells from 19-week fetal human dermis were obtained. The cultures were maintained in Eagles minimum essential medium with Earle's salts supplemented with 10% fetal bovine serum. All cells used were in the second passage and were obtained from confluent cultures. Prior to release and dispersion with trypsin, the cells were rinsed three times with phosphate buffered saline. The cell layers were exposed for two minutes to 0.05% trypsin, 0.02% NaEDTA in phosphate buffered saline, and rinsed with serum free medium.
Collagen related, but non-inventive peptides, (Pro-Pro-Gly)10 and (Pro-Hyp-Gly)10 (wherein Hyp is hydroxy-proline), were obtained from Peninsula Laboratory, Belmont, Calif. Polyproline was purchased from Sigma Biochemicals, St. Louis, Mo. Dynorphin 1-13 and human preangiotensinogen 1-14 were purchased from Bachem, Torrance, Calif. Three different fibronectin related peptide sequences were also obtained from Bachem and were used without further analysis.
The inventive peptide (SEQ ID NO:1) was synthesized as described in Example 1 and the same procedures and conditions of Example 1 were used herein.
In this experiment to examine the effect of various additives on binding, the additives were added in the medium containing the cells before being transferred to the dishes for the binding assay. It was observed that cell binding to collagen proceeds rapidly in the beginning of the experiment but then slows down after approximately 30 minutes and approximately 70-80% of the cell binding in the absence of a peptide occurs during this time. The effect of the peptide inhibitor on the initial rate of the binding reaction between cells and collagen was examined. The effects of various conditions on cell binding to collagen after 30 minutes were usually compounded.
All peptides used had small inhibitory effects on cell binding, although none reached the level of inhibition observed with the inventive peptide. […] Under the conditions of these experiments, polyproline and (PPG)10 exist as single chains in polyproline conformation whereas (P-Hyp-G)10 is a triple helix. The behavior of dynorphin 1-13 and preangio-tensinogen 1-14, peptides similar in size to the inventive peptide, on cell binding was also examined.

Assay [3] has as its system cells. The experiment in a line: Relative cell-binding activity of synthetic peptides (relative to the SEQ ID NO:1 peptide / P-15, or to collagen). Type of assay: cell-based. The settings on record: for Relative Cell-Binding Activity: relative to the inventive peptide illustrated in Examples 1 and 2 (SEQ ID NO:1). How it is done: Several more synthetic peptides were prepared and tested for cell binding activity (relative to the SEQ ID NO:1 peptide) all of which have the β-bend feature and which have excellent cell binding activity.
The relative efficiencies of some synthetic peptides of this invention for cell-binding activity (relative to the inventive peptide illustrated in Examples 1 and 2) are set out in Table 4.

Assay [4] relates to peripheral blood CD4 and CD8 lymphocytes. The experiment in a line: Inhibition of T-cell binding to collagen-coated dishes (Example 7). In kind it is cell-based. Particulars: rat tail type I collagen-coated dishes, serum free medium. How it is done:
Cultured T-cells were incubated in collagen-coated dishes in serum free medium, in the presence and absence of inventive peptides. […] Inhibition was examined at several concentrations and times. Maximal inhibition by the peptides occurred at 30 minutes at 37 ? C at a concentration of 35 μM. Thus, the molecular site on type I collagen involved in the interaction with T-cells appears to be the same as involved in fibroblast binding.

A further assay has as its system fibroblast cells. The experiment in a line: Fibroblast growth and migration into agarose gel containing peptide (Example 3). The settings on record: 100 μg peptide in agarose gel (2 mg/ml); 100,000-200,000 fibroblast cells; 72 hours after plating. In kind it is cell-based. How it is done: Referring to FIGS. 1 and 2, a prior art agarose gel was prepared with an agarose concentration of 2 mg/ml and between 100,000-200,000 fibroblast cells were placed on the gel surface. The agarose gel had been prepared with a suitable fibroblast cell growth medium and the cells placed on the agarose gel were treated with growth medium; however, the cells died within 48 hours, as is illustrated by the FIG. 1 photograph. […] The fibroblast population continued to grow rapidly until cells filled the lattice of the gel.
Different concentrations of the inventive peptides in hydrogels were studied. […] Different types of cells appear to prefer different inventive peptide concentrations in hydrogels, probably due to differences in receptor densities, but in general about 100 μg/ml will be effective.

Another assay has as its system dermal fibroblasts. The assay can be described thus: Induction of metalloproteinases and osteodifferentiation in dermal fibroblasts. Type of assay: cell-based. The text has this:
This activity is useful for resolving fibrosis. […] This is confirmed by the induction of the following genes: type I collagen, collagenase, alkaline phosphatase, osteonectin, transforming growth factor β (TGF-β), and osteogenin (bone morphogenic protein, […]). These studies confirm that the inventive peptides mimic the biological activity of collagen by binding to specific receptors and inducing biochemical processes characteristic of those induced by collagen itself.

Assay [5] deals with cells. The experiment in a line: Relative cell-binding activity of synthetic peptides (relative to the SEQ ID NO:1 peptide / P-15, or to collagen). In kind it is cell-based.

Entries after “also recorded” stand apart in the source; their conditions may differ. No end group written: not given here.

With “Collagen: Rat tail tendon collagen purified to homogeneity [reference compound]”, the “Concentration of Cells (Relative Binding of Cells After 15 Minutes)” value in assay [1] (15 minutes) is on record as 8.59.
Dynorphin 1-13 (YGGFLRRIRPKLK): in assay [2] (peptide 35 × 10^−6M), the “% Inhibition of Cell Attachment” value is given as 19% and the “% of Maximal Cell Attachment” value is listed as 81%. In assay [2], the “effect on the binding of cells to collagen (in words)” value (shortened to “effect on the binding of cells”) was “did not affect the binding of cells to collagen to the extent shown by the inventive peptide”.
With FGIAGF [SEQ ID NO:5], in the assay with cells [3], the “cell binding activity compared with P-15 region / SEQ ID NO:1 peptide (in words)” value is “cell binding activity comparable to that of the peptides of SEQ ID NO: 1, 2, and 3”; the “Relative Cell-Binding Activity” value was found to be 87.
Turning to GPQGIAGQR [SEQ ID NO:2], in the assay with cells [3], the “cell binding activity compared with P-15 region / SEQ ID NO:1 peptide (in words)” value is recorded as “equally as active as the entire P-15 region” and the “Relative Cell-Binding Activity” value was determined as 100. For the same substance, in assay [4], the “inhibition of interactions between T-cells and collagen” value is on record as “markedly inhibited”.
For the substance GTPGPQGIAGQRGVV [SEQ ID NO:1], in assay [1] (15 minutes), the “increase in cell binding over collagen-coated dishes” value is given as 40%, the “increase in cell binding over the control (no collagen or peptide) dishes” value amounted to 60% and the “Concentration of Cells (Relative Binding of Cells After 15 Minutes)” value came out at 11.05. Moreover, the “potency relative to collagen in binding cells to glass or to polystyrene” value in assay [1] (various other similar studies) is recorded as “at least twice as potent as collagen”. In addition, the “fibroblast growth and migration into agarose gel” value in the assay with fibroblast cells was “the cells not only grew, but actually migrated into the gel itself”. Further, the “inhibition of interactions between T-cells and collagen” value in assay [4] is listed as “markedly inhibited”. For the same substance, the induction of metalloproteinases entry in the assay on dermal fibroblasts (dermal fibroblasts) is “induces metalloproteinases”. Further, in the assay with dermal fibroblasts (in composites with hydroxyapatite, non-osteoblastic (dermal) fibroblasts), the “osteodifferentiation (induction of type I collagen, collagenase, alkaline phosphatase, osteonectin, TGF-β, BMP-7 genes)” value is given as “causes osteodifferentiation”. In assay [2] (peptide 7.2 × 10^−6M), the “% Inhibition of Cell Attachment” value is 85% and the “% of Maximal Cell Attachment” value amounted to 15%. In assay [2] (peptide 36 × 10^−6M), the “% Inhibition of Cell Attachment” value stood at 88% and the “% of Maximal Cell Attachment” value turned out to be 12%. Besides, the “effect on the binding of cells” value in assay [2] is given as “potent inhibitor of the binding of cells to collagen”.
In the case of “Gln-Gly-Ile-Ala-Gly (QGIAG; OTHER INFORMATION: synthetic peptide) [SEQ ID NO:8]”, the “cell binding enhancement with respect to collagen (in words)” value in the assay on cells [5] is on record as “slightly enhanced with respect to collagen, but not significantly enhanced; also recorded: not significantly enhanced with respect to collagen”. The “cell-binding activity (relative to the SEQ ID NO:1 peptide)” value in the assay on cells [3] amounted to 42%.
As to “Gly-Ile-Ala-Gly (FGIAGF; OTHER INFORMATION: synthetic peptide) [SEQ ID NO:9]”, the “cell binding enhancement with respect to collagen (in words)” value in the assay on cells [5] is given as “not significantly enhanced with respect to collagen”.
For “Gly—Ile—Ala—Gly—Gln (GIAGQ; OTHER INFORMATION: synthetic peptide) [SEQ ID NO:6]”, in the assay on cells [3], the “cell-binding activity (relative to the SEQ ID NO:1 peptide)” value is given as 70% and the “Relative Cell-Binding Activity” value is given as 70.
As to Polyproline, in assay [2] (peptide 1.7 × 10^−6M), the “% Inhibition of Cell Attachment” value is 10% and the “% of Maximal Cell Attachment” value is recorded as 90%. The “effect on the binding of cells” value in assay [2] was “did not significantly affect the binding of cells”.
With QGAIAQ [SEQ ID NO:7], the “Relative Cell-Binding Activity” value with cells [3] is 70.
As to QGIAGQ [SEQ ID NO:3], in the assay with cells [3], the “cell binding activity compared with P-15 region / SEQ ID NO:1 peptide (in words)” value is given as “as active, or more active, than a peptide having the entire P-15 region” and the “Relative Cell-Binding Activity” value worked out at 120. Also, the “inhibition of interactions between T-cells and collagen” value in assay [4] was “markedly inhibited”.
As to QGIAGQR [SEQ ID NO:4], the “Relative Cell-Binding Activity” value in the assay with cells [3] is 60.
Take “human preangiotensinogen 1-14 (DRVYIHPFHLVIHN)”: in assay [2] (peptide 35 × 10^−6M), the “% Inhibition of Cell Attachment” value came to 12% and the “% of Maximal Cell Attachment” value stood at 88%. For the same substance, the “effect on the binding of cells” value in assay [2] was “did not affect the binding of cells to collagen to the extent shown by the inventive peptide”.
